Experimental data published in PMC6240685, “Strong Inhibitory Effect, Low Cytotoxicity and High Plasma Stability of Steroidal Inhibitors of N-Methyl-D-Aspartate Receptors With C-3 Amide Structural Motif” (Frontiers in Pharmacology, 2018).
Where a name gives a salt, the structure may show the parent alone. Read-outs that look alike come from different tables or passages of the source.

Assays:
[1] = biological target: T1, GluN1/GluN2A receptors (Rattus norvegicus, UniProt P35439+Q00959); parameters: method as in Petrovic et al., 2005; details: ref Petrovic et al., 2005; cited from earlier work
T1 construct: expressed in transfected cells; host or cells: HEK293
T1 sequence (Q00959 23-1464, other chains not shown): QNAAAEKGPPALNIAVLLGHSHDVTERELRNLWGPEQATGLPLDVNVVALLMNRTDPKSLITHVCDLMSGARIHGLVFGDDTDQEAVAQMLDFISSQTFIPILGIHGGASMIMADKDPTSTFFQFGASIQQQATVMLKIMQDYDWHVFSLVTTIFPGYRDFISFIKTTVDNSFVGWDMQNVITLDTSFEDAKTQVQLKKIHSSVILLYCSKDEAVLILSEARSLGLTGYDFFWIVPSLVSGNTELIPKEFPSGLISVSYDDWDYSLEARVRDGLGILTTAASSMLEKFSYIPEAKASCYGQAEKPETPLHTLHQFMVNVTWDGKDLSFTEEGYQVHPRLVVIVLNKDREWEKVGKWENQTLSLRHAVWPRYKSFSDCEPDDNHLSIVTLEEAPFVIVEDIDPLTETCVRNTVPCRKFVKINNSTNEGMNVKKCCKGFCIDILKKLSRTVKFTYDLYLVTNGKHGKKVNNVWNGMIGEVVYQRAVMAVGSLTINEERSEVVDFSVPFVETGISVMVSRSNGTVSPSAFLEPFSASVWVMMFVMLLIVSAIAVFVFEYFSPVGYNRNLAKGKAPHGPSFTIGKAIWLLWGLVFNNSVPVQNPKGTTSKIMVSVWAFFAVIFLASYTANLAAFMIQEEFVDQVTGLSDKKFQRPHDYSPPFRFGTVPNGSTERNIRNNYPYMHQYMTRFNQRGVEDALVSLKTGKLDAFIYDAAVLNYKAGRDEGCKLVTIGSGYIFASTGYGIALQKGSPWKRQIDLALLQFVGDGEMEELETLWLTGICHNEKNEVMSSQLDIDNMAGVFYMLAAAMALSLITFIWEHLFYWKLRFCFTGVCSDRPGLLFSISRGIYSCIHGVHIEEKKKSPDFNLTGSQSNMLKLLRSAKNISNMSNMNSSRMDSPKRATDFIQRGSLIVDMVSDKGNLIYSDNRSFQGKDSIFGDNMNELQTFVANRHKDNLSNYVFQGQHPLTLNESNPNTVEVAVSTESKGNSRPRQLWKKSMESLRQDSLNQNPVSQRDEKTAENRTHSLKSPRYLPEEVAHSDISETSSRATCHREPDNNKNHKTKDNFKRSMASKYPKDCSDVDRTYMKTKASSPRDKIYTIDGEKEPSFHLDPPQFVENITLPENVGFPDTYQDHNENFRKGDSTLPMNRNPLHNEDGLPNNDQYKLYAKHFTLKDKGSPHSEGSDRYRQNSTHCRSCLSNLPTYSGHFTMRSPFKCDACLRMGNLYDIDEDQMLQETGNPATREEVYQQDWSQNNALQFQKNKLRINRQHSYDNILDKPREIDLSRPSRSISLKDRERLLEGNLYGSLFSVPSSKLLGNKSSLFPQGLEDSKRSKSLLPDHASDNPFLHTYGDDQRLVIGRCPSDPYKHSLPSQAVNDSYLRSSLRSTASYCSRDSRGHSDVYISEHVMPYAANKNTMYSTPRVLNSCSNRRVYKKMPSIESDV

[2] = test system: HepG2 cells; experiment: Mitotoxicity, XTT viability in glucose vs galactose medium; details: for IC50: Homo sapiens, HepG2, 24 h; for Glu/Gal index (fold change): 24 h, HepG2, index higher than 3 indicates potential mitochondrial toxicity
Experimental: (§1) (A) Hepatotoxicity provoked by compound 4 was assessed after 72 h incubation of HepG2 cells in low glucose medium (5 mM) in the presence of compound 4 (0.25–100 μM). (B) Mitochondrial toxicity was determined after 24 h incubation of HepG2 cells in either high glucose medium (25 mM) or galactose medium (10 mM) in the presence of compound 4 (2.5–150 μM). Cell viabilities were recorded in triplicates in three independent experiments and expressed as percentage of vehicle control ± SD and IC50 values were determined by GraphPad Prism software using following equation: Y = Bottom + (Top–Bottom)/(1 + 10ˆ((LogIC50-X)^∗HillSlope)), where IC50 is the concentration of compound 4 that inhibits cell viability half way between Bottom and Top plateaus, X is compound 4 concentration and HillSlope describes the steepness of the family of curves. […] (C) Concentration-dependent effect on ROS level. HepG2 cells were treated with compound 4 (0.25–100 μM) for 72 h, and then the intracellular level of total ROS in relative fluorescence units (RFU) was detected. The data are presented as the mean ± SD for at least three independent experiments and each experiment was carried out in triplicate. Final concentration of DMSO in samples was 1%. […] Single asterisks (^∗) indicate a significant difference (P < 0.05) compared to 1% DMSO control (one-way ANOVA with Dunnett’s post-test).
(§2) HepG2 cells (ATCC®, United Kingdom) were grown in complete Minimal Essential Medium (EMEM) (5.5 mM glucose) medium, supplemented with 10% (v/v) fetal calf serum, 200 μg/mL of streptomycin, 200 U/mL of penicillin G and 4 mM glutamine. They were cultured under a humidified atmosphere containing 5% CO2 at 37°C.
(§3) The cytotoxicity of the tested compounds was assessed with use of XTT cell proliferation kit II (Roche Diagnostics GmbH, Mannheim, Germany) according to the manufacturer’s instructions. Briefly HepG2 cells were seeded in a 96-well plate at a density of 22,000 cells per well. After 24 h, the tested neurosteroids in a concentration range from 0.5 to 200 μM were added to the culture media and incubated for 72 h before the XTT dye was added. Mitochondrial toxicity was assessed in HepG2 cells using glucose and galactose conditioned media and XTT assay as a read out for cell viability. In brief, cells were seeded onto 96 well, clear bottom tissue culture plates at a density of 22,000 cells/well and left overnight to attach. Six hours prior to the neurosteroids treatment the media was replaced with 100 μL DMEM media containing either glucose (25 mM glucose; 1 mM pyruvate; 2 mM glutamine, 10% FBS) or galactose (10 mM galactose, 1 mM pyruvate, 6 mM glutamine, 10% FBS). After that, the tested neurosteroids in a concentration range from 0.5 to 200 μM were added in the fresh appropriate assay medium (glucose or galactose) and incubated for 24 h before the XTT dye was added. The XTT absorbance was recorded at 495 nm after 1 h incubation with the dye. Compounds were dissolved in DMSO to produce the stock solutions at the concentration of 10 mM, with exception of PAG, 1, 6 (5 mM), and 11 (2.5 mM). Results were expressed as percentages of change in viability compared to appropriate DMSO control. IC50 values were determined by GraphPad Prism version 5.00 for Windows (GraphPad Software, La Jolla, CA, United States). All experiments were done in triplicates in three independent experiments to check the reproducibility.

[3] = biological target: T2, GluN1/GluN2C receptors (Rattus norvegicus, UniProt P35439+Q00961); parameters: method as in Petrovic et al., 2005; details: ref Petrovic et al., 2005; cited from earlier work
T2 construct: expressed in transfected cells; host or cells: HEK293
T2 sequence (Q00961 20-1237, other chains not shown): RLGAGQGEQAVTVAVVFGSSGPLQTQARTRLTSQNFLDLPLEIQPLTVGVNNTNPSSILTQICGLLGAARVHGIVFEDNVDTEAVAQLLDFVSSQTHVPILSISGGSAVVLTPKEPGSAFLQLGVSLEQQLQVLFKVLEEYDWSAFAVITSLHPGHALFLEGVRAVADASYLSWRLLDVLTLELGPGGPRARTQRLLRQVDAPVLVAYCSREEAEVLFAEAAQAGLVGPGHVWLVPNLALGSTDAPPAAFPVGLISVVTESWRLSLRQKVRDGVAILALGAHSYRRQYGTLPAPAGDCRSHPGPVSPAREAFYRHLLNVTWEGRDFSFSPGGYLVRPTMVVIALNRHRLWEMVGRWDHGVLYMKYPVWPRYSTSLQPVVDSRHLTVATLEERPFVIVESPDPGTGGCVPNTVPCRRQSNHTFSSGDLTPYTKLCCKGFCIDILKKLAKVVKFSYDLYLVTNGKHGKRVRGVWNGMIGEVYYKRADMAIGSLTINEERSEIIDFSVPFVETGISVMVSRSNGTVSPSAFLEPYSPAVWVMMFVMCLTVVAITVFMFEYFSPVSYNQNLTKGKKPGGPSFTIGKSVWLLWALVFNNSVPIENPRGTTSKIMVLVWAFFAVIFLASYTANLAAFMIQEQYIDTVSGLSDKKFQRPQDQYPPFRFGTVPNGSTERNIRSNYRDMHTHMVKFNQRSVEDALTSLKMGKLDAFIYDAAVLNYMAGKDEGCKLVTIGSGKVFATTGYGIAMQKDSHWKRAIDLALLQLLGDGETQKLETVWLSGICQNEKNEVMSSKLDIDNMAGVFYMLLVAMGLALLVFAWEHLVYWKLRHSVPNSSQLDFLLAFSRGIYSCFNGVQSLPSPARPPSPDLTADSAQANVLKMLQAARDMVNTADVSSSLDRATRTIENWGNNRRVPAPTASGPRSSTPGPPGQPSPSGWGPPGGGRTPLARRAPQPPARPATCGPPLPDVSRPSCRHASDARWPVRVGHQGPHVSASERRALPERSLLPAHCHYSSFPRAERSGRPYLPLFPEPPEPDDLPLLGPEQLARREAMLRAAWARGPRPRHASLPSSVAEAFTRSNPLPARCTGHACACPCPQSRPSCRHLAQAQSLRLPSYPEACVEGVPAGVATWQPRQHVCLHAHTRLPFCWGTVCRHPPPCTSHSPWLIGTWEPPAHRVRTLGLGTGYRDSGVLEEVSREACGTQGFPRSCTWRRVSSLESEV

[4] = biological target: T3, GluN1/GluN2B receptors (Rattus norvegicus, UniProt P35439+Q00960); experiment: Patch-clamp inhibition of glutamate responses of GluN1/GluN2B receptors in transfected HEK293 cells; format: cell-based
T3 construct: expressed in transfected cells; host or cells: HEK293
T3 sequence (Q00960 27-1482, other chains not shown): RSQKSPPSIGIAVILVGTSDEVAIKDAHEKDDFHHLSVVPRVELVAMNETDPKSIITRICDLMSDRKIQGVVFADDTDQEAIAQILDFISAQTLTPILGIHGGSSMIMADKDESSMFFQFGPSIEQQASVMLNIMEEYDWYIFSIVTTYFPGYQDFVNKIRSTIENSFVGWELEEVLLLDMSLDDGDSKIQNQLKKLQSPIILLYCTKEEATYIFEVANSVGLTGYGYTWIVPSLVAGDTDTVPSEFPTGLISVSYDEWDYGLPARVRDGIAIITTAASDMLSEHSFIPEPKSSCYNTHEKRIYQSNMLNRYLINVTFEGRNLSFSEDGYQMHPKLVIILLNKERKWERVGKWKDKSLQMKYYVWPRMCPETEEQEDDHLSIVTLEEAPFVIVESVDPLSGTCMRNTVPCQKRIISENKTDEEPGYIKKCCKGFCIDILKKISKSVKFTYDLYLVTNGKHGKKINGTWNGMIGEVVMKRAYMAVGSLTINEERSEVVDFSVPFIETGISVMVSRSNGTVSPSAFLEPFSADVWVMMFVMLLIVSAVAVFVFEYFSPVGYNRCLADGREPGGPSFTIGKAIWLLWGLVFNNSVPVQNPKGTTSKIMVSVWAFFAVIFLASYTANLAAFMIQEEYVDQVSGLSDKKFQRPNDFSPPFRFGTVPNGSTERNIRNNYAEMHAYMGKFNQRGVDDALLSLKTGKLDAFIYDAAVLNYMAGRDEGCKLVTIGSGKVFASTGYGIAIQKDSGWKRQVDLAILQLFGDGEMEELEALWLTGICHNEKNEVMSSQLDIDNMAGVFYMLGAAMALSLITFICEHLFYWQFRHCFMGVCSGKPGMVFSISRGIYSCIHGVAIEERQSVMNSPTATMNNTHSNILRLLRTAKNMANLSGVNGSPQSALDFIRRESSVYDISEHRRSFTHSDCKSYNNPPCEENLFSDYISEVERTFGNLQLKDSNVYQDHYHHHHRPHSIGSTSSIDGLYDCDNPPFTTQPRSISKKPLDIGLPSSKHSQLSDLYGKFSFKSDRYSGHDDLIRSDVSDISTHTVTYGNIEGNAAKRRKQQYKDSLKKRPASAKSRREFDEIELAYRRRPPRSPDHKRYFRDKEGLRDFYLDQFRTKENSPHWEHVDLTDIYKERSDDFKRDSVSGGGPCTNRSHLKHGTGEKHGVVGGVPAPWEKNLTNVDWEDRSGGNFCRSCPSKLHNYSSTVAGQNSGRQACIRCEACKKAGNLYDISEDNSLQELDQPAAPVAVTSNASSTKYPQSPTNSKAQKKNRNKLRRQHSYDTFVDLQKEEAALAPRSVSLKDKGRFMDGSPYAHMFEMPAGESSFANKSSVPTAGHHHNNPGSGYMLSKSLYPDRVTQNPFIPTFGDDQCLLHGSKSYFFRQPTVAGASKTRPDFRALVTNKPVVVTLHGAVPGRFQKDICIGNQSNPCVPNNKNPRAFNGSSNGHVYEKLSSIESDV

[5] = biological target: T4, GluN1/GluN2D receptors (Rattus norvegicus, UniProt P35439+Q62645); parameters: method as in Petrovic et al., 2005; details: ref Petrovic et al., 2005; cited from earlier work
T4 construct: expressed in transfected cells; host or cells: HEK293

[6] = test system: HepG2 cells; experiment: Hepatotoxicity, XTT viability after 72 h; format: cell-based; details: Homo sapiens, read-out: Hepatotoxicity IC50, 5.5 mM glucose
Experimental: Then, the cell viability (XTT assay) and reactive oxygen species (ROS) induction were evaluated.
as §1, §2, §3

[7] = biological target: T3, GluN1/GluN2B receptors; parameters: method as in Petrovic et al., 2005; details: ref Petrovic et al., 2005; cited from earlier work
[8] = test system: HepG2 cells; experiment: ROS induction (CM-H2DCFDA); format: cell-based
Experimental: as §1
The effect of neurosteroids on oxidative stress was determined using general oxidative stress indicator CM-H2DCFDA (Thermo Fisher Scientific, Waltham, MA, United States) according to the manufacturer’s instructions. Briefly HepG2 cells were seeded in a 96-well plate at a density of 13,500 cells per well. After 24 h, the tested neurosteroids were added to the culture media and incubated for 72 h. Subsequently, cells were washed with HBSS, treated with 100 μL of 1 μM CM-H2DCF-DA solution in HBSS and incubated for 1 h in the dark at 37°C. Finally, cells were washed three times with HBSS and the fluorescence was measured using 495 excitation and 527 emission in fluorescence microplate reader (Cytation 3, Winooski, VT, United States). IC50 index values were determined by GraphPad Prism version 5.00 for Windows (GraphPad Software, La Jolla, CA, United States).

[9] = Plasma stability, rat plasma; format: in vitro ADME
[10] = Plasma stability, human plasma; format: in vitro ADME
Experimental: Then, 37.8 μL of stock solution was added to 1400 μL of human plasma, maintained at 37°C. Aliquots (50 μL) withdrawn at 0, 1, 4, 8, and 24 h were analyzed by HPLC. […] The supernatant was transferred to an autosampler vial and 1 μL was injected onto LC-MS system. The samples were analyzed with an Agilent 1260 HPLC (Agilent Technologies) coupled to ESI-TOF Agilent 6530 (Agilent Technologies) with Agilent Jet Stream Technology. Samples were separated on a Waters ACQUITY UPLC CSH Phenyl-Hexyl (100 × 2.1, 130 Å, 1.7 μm) at a flow rate 0.3 ml/min. […] The mass spectrometry instrument was operated in a negative ion mode with a voltage of +3.00 kV applied to the capillary. The temperature, the flow rate of the nitrogen drying gas, the pressure of the nitrogen nebulizing gas, and the flow rate of the sheath gas were set at 325°C, 10 l/min, 40 psi, 390°C, and 11 l/min, respectively. Results are represented as a percentage of a compound remaining in spiked human plasma.

[11] = parameters: method as in Kleteckova et al., 2014; details: induced by endothelin-1, immature rats; ref Kleteckova et al., 2014; cited from earlier work
[12] = parameters: method as in Rambousek et al., 2011; details: after bilateral NMDA-induced lesions to the hippocampus; ref Rambousek et al., 2011; cited from earlier work
[13] = parameters: method as in Holubova et al., 2014; details: ref Holubova et al., 2014; cited from earlier work
[14] = parameters: method as in Rambousek et al., 2011; details: ref Rambousek et al., 2011, cited from earlier work
[15] = read-out: Mitotoxicity IC50, 10 mM galactose
[16] = read-out: Mitotoxicity IC50, 25 mM glucose
[17] = Homo sapiens, HepG2, 72 h, read-out: ROS induction EC50
[18] = as repeated in Table 2, read-out: IC50
[19] = current responses to glutamate, HEK293, IC50 from single steroid dose, Hill coefficient fixed at 1.2, read-out: IC50 ± SD
[20] = Homo sapiens, HepG2, 72 h; read-out: ROS induction EC50

SMILES | IC50 [2, 15] [µM] | IC50 [2, 16] [µM] | IC50 [4] [µM] | IC50 ([6]; HepG2, 72 h) [µM] | EC50 [8, 17] [µM] | melting point [°C] | remaining at 8 h, 42.1 μg/mL ([9]; rat, plasma) [%] | Glu/Gal index (fold change) [2] | ΔGexp [4] [kcal/mol] | IC50 [4, 18] [µM] | IC50 [4, 19] [µM] | IC50 ([6]; 72 h, HepG2, 5.5 mM glucose) [µM] | remaining at 8 h, 42.1 μg/mL ([10]; human, plasma) [%] | EC50 [8, 20] [µM] | other results
CC(=O)[C@H]1CC[C@H]2[C@@H]3CC[C@@H]4C[C@H](OS(=O)(=O)O)CC[C@]4(C)[C@H]3CC[C@]12C [PAS, 20-oxo-5β-pregnan-3α-yl sulfate, reference compound] | > 200 | > 200 | 24.6 ± 5.3 | > 200 | > 200 | – | – | – | – | – | – | – | – | – | IC50 [1]: 50 µM; IC50 [3]: 25.6 µM; IC50 [5]: 30.1 µM; IC50 [7]: 44.4 µM
CC(C)(C)OC(=O)N[C@H](CCC(=O)N[C@@H]1CC[C@@]2(C)[C@H](CC[C@H]3[C@@H]4CCC[C@@]4(C)CC[C@@H]32)C1)C(=O)O [Compound 11, (R)-2-((tert-butoxycarbonyl)amino)-5-(((3R,5R,8S,9S,10S,13S,14S)-10,13-dimethylhexadecahydro-1H-cyclopenta[a]phenanthren-3-yl)amino)-5-oxopentanoic acid] | 193 ± 17 | 193 ± 13 | – | – | – | 125 to 128 | 100 | 1 | -7.49 | 3.4 | 3.4 ± 0.1 | 91 ± 5 | 100 | 103 ± 8 | –
CC(C)(C)OC(=O)N[C@@H](CC(=O)N[C@@H]1CC[C@@]2(C)[C@H](CC[C@H]3[C@@H]4CCC[C@@]4(C)CC[C@@H]32)C1)C(=O)O [Compound 9, (S)-2-((tert-butoxycarbonyl)amino)-4-(((3R,5R,8S,9S,10S,13S,14S)-10,13-dimethylhexadecahydro-1H-cyclopenta[a]phenanthren-3-yl)amino)-4-oxobutanoic acid] | > 200 | > 200 | – | – | – | 154 to 157 | 99 | – | -7.33 | 4.5 | 4.5 ± 0.6 | > 200 | 100 | > 200 | –
C[C@@]12CCC[C@H]1[C@@H]1CC[C@@H]3C[C@H](NC(=O)C[C@H](N)C(=O)O)CC[C@]3(C)[C@H]1CC2 [Compound 10, (S)-2-amino-4-(((3R,5R,8S,9S,10S,13S,14S)-10,13-dimethylhexadecahydro-1H-cyclopenta[a]phenanthren-3-yl)amino)-4-oxobutanoic acid] | > 200 | > 200 | – | – | – | 188 to 190 | 100 | – | -7.27 | 4.9 | 4.9 ± 1.7 | > 200 | 100 | > 200 | –
CC(=O)C1CCC2C3CCC4CC(OC(=O)C(N)CCC(=O)O)CCC4(C)C3CCC12C (stereo not drawn) [PAG, pregnanolone glutamate, reference compound] | 58 ± 7 | 115 ± 13 | 51.7 ± 8.6 | 62 ± 9 | 80 ± 11 | – | – | 1.97 | – | – | – | – | – | – | remaining at 8 h, 42.1 μg/mL ([9]; rat plasma, 8 h, 37°C, read-out: Plasma stability (% remaining after 8 h), Rat): 82%; effect in focal cerebral ischemia model [11]: neuroprotective effect; behavioral performance in active allothetic place avoidance tasks (AAPA) [12]: improved behavioral performance; neuronal damage in the dentate gyrus and subiculum [12]: significantly ameliorated neuronal damage; remaining at 8 h, 42.1 μg/mL ([10]; human plasma, 8 h, 37°C, read-out: Plasma stability (% remaining after 8 h), Human): 94%; behaviour in elevated plus maze (EPM) and forced swimming models [13]: anxiolytic-like and antidepressant-like properties; excitotoxic damage of brain tissue and subsequent behavioral impairment ([14]; rats): reduced excitotoxic damage of brain tissue and subsequent behavioral impairment; psychotomimetic symptoms (hyperlocomotion, sensorimotor gating deficit) [14]: does not induce psychotomimetic symptoms
